Legend:
barnyardgrass [1] = test: Test C preemergence; format: in vivo, Echinochloa crusgalli
Method in brief: (§1)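 Soil-applied (pre) and foliar (post, 1–2 leaf, 2–10 cm) sprays; surfactant-containing non-phytotoxic solvent vehicle; loam/sand substrate. Readout: visual % control at 10 d, greenhouse, versus untreated.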

blackgrass [2] = test: Test C preemergence; format: in vivo, Alopecurus myosuroides
Method in brief: as §1

corn [3] = test: Test C preemergence; format: in vivo, Zea mays
Method in brief: as §1

foxtail, giant [4] = test: Test C preemergence; format: in vivo, Setaria faberi
Description: (§2) Seeds of plant species selected from barnyardgrass (Echinochloa crusgalli), blackgrass (Alopecurus myosuroides), corn (Zea mays), foxtail, giant (giant foxtail, Setaria faberi), green foxtail (Setaria viridis), goosegrass (Eleusine indica), kochia (Bassia scoparia), oat, wild (wild oat, Avena fatua), pigweed, palmer (palmer amaranth, palmer pigweed, Amaranthus palmeri), Pigweed, Redroot (redroot pigweed, Amaranthus retroflexus), ragweed (common ragweed, Ambrosia artemisiifolia), ryegrass, Italian ([…] ryegrass, Lolium multiflorum), soybean (Glycine max), and wheat (Triticum aestivum) were planted into a blend of loam soil and sand and treated preemergence with a directed soil spray using test chemicals formulated in a non-phytotoxic solvent mixture which included a surfactant. At the same time, plants selected from these crops and weed species and also galium (catchweed bedstraw, Galium aparine) and horseweed (Erigeron canadensis) were planted in pots containing the same blend of loam soil and sand and treated with postemergence applications of test chemicals formulated in the same manner. Plants ranged in height from 2 to 10 cm and were in the one- to two-leaf stage for the postemergence treatment. Treated plants and untreated controls were maintained in a greenhouse for 10 days, after which time all treated plants were compared to untreated controls and visually evaluated for injury. Plant response ratings, summarized in Table C, are based on a 0 to 100 scale where 0 is no effect and 100 is complete control. A dash (-) response means no test result.

kochia [5] = test: Test C preemergence; format: in vivo, Bassia scoparia
Method in brief: as §1

oat, wild [6] = test: Test C preemergence; format: in vivo, Avena fatua
Method in brief: as §1

pigweed, palmer [7] = test: Test C preemergence; format: in vivo, Amaranthus palmeri
Method in brief: as §1

ragweed [8] = test: Test C preemergence; format: in vivo, Ambrosia artemisiifolia
Method in brief: as §1

ryegrass, Italian [9] = test: Test C preemergence; format: in vivo, Lolium multiflorum
Method in brief: as §1

soybean [10] = test: Test C preemergence; format: in vivo, Glycine max
Method in brief: as §1

wheat [11] = test: Test C preemergence; format: in vivo, Triticum aestivum
Method in brief: as §1

barnyardgrass [12] = test: Test C postemergence; format: in vivo, Echinochloa crusgalli; conditions: 10 days, 0 to 100 scale (0 no effect, 100 complete control)
Method in brief: as §1

blackgrass [13] = test: Test C postemergence; format: in vivo, Alopecurus myosuroides; conditions: 10 days, 0 to 100 scale (0 no effect, 100 complete control)
Method in brief: as §1

corn [14] = test: Test C postemergence; format: in vivo, Zea mays; conditions: 10 days, 0 to 100 scale (0 no effect, 100 complete control)
Method in brief: as §1

foxtail, giant [15] = test: Test C postemergence; format: in vivo, Setaria faberi; conditions: 10 days, 0 to 100 scale (0 no effect, 100 complete control)
Description: as §2

kochia [16] = test: Test C postemergence; format: in vivo, Bassia scoparia; conditions: 10 days, 0 to 100 scale (0 no effect, 100 complete control)
Method in brief: as §1

oat, wild [17] = test: Test C postemergence; format: in vivo, Avena fatua; conditions: 10 days, 0 to 100 scale (0 no effect, 100 complete control)
Method in brief: as §1

pigweed, palmer [18] = test: Test C postemergence; format: in vivo, Amaranthus palmeri; conditions: 10 days, 0 to 100 scale (0 no effect, 100 complete control)
Method in brief: as §1

ragweed [19] = test: Test C postemergence; format: in vivo, Ambrosia artemisiifolia; conditions: 10 days, 0 to 100 scale (0 no effect, 100 complete control)
Method in brief: as §1

ryegrass, Italian [20] = test: Test C postemergence; format: in vivo, Lolium multiflorum; conditions: 10 days, 0 to 100 scale (0 no effect, 100 complete control)
Method in brief: as §1

soybean [21] = test: Test C postemergence; format: in vivo, Glycine max; conditions: 10 days, 0 to 100 scale (0 no effect, 100 complete control)
Method in brief: as §1

wheat [22] = test: Test C postemergence; format: in vivo, Triticum aestivum; conditions: 10 days, 0 to 100 scale (0 no effect, 100 complete control)
Method in brief: as §1

galium = test: Test C postemergence; format: in vivo, Galium aparine; conditions: 10 days, 0 to 100 scale (0 no effect, 100 complete control)
Method in brief: as §1

horseweed = test: Test C postemergence; format: in vivo, Erigeron canadensis; conditions: 10 days, 0 to 100 scale (0 no effect, 100 complete control)
Method in brief: as §1

barnyardgrass [23] = test: Test D flooded paddy test; format: in vivo, Echinochloa crus-galli; conditions: 250 g ai/ha, applied to paddy water, visual rating after 13 to 14 days, scale 0 to 100 (0 no effect, 100 complete control)
Method in brief: (§3)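 Seedlings reached the 2-leaf stage, then pots were flooded to 3 cm over the soil surface. Compound was applied into the water, depth was maintained, and plants stayed in the greenhouse 13 to 14 days before visual scoring (0–100) relative to controls.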

ducksalad = test: Test D flooded paddy test; format: in vivo, Heteranthera limosa; conditions: 250 g ai/ha, applied to paddy water, visual rating after 13 to 14 days, scale 0 to 100 (0 no effect, 100 complete control)
Method in brief: as §3

rice = test: Test D flooded paddy test; format: in vivo, Oryza sativa; conditions: 250 g ai/ha, applied to paddy water, visual rating after 13 to 14 days, scale 0 to 100 (0 no effect, 100 complete control)
Method in brief: as §3

sedge, umbrella = test: Test D flooded paddy test; format: in vivo, Cyperus difformis; conditions: 250 g ai/ha, applied to paddy water, visual rating after 13 to 14 days, scale 0 to 100 (0 no effect, 100 complete control)
Method in brief: as §3

[24] = 500 g ai/ha, preemergence, 0 to 100 scale (0 no effect, 100 complete control)
[25] = Preemergence, 125 g ai/ha, 0 to 100 scale, 0 no effect, 100 complete control

`CCc1ncn(-c2cccc(C(=O)N3CC(C(F)(F)F)Oc4c(Cl)cccc43)c2)n1` (stereo not shown) [Compound 345] was tested, and the “Barnyardgrass plant response rating” value (barnyardgrass [1]; [24]) was 100, the “Plant response rating, Barnyardgrass” value (barnyardgrass [1]; [25]) was 60 and the “Blackgrass plant response rating” value (blackgrass [2]; [24]) was 90. For the same compound, the “Plant response rating, Blackgrass” value (blackgrass [2]; [25]) was 80, the “Corn plant response rating” value (corn [3]; [24]) was 30 and the “Plant response rating, Corn” value (corn [3]; [25]) was 10. The “Foxtail, Giant plant response rating” value (foxtail, giant [4]; [24]) was 100, the “Plant response rating, Foxtail, Giant” value (foxtail, giant [4]; [25]) was 90 and the “Kochia plant response rating” value (kochia [5]; [24]) was 100. For the same compound, the “Plant response rating, Kochia” value (kochia [5]; [25]) was 50, the “Oat, Wild plant response rating” value (oat, wild [6]; [24]) was 80 and the “Plant response rating, Oat, Wild” value (oat, wild [6]; [25]) was 10. The “Pigweed, Palmer plant response rating” value (pigweed, palmer [7]; [24]) was 100, the “Plant response rating, Pigweed, Palmer” value (pigweed, palmer [7]; [25]) was 100 and the “Ragweed plant response rating” value (ragweed [8]; [24]) was 0. The “Plant response rating, Ragweed” value (ragweed [8]; [25]) was 0, the “Ryegrass, Italian plant response rating” value (ryegrass, Italian [9]; [24]) was 90 and the “Plant response rating, Ryegrass, Italian” value (ryegrass, Italian [9]; [25]) was 80. The “Soybean plant response rating” value (soybean [10]; [24]) was 100, the “Plant response rating, Soybean” value (soybean [10]; [25]) was 30 and the “Wheat plant response rating” value (wheat [11]; [24]) was 10. For the same compound, the “Plant response rating, Wheat” value (wheat [11]; [25]) was 0, the “Plant response rating, Barnyardgrass” value (barnyardgrass [12]; 500 g ai/ha, postemergence) was 60 and the “Plant response rating, Barnyardgrass” value (barnyardgrass [12]; Postemergence, 125 g ai/ha) was 30. The “Plant response rating, Blackgrass” value (blackgrass [13]; 500 g ai/ha, postemergence) was 90, the “Plant response rating, Blackgrass” value (blackgrass [13]; Postemergence, 125 g ai/ha) was 50 and the “Plant response rating, Corn” value (corn [14]; 500 g ai/ha, postemergence) was 80. For the same compound, the “Plant response rating, Corn” value (corn [14]; Postemergence, 125 g ai/ha) was 30, the “Plant response rating, Foxtail, Giant” value (foxtail, giant [15]; 500 g ai/ha, postemergence) was 90 and the “Plant response rating, Foxtail, Giant” value (foxtail, giant [15]; Postemergence, 125 g ai/ha) was 60. For the same compound, the “Plant response rating, Kochia” value (kochia [16]; 500 g ai/ha, postemergence) was 90, the “Plant response rating, Kochia” value (kochia [16]; Postemergence, 125 g ai/ha) was 80 and the “Plant response rating, Oat, Wild” value (oat, wild [17]; 500 g ai/ha, postemergence) was 30. For the same compound, the “Plant response rating, Oat, Wild” value (oat, wild [17]; Postemergence, 125 g ai/ha) was 20, the “Plant response rating, Pigweed, Palmer” value (pigweed, palmer [18]; 500 g ai/ha, postemergence) was 80 and the “Plant response rating, Pigweed, Palmer” value (pigweed, palmer [18]; Postemergence, 125 g ai/ha) was 60. The “Plant response rating, Ragweed” value (ragweed [19]; 500 g ai/ha, postemergence) was 60, the “Plant response rating, Ragweed” value (ragweed [19]; Postemergence, 125 g ai/ha) was 40 and the “Plant response rating, Ryegrass, Italian” value (ryegrass, Italian [20]; 500 g ai/ha, postemergence) was 80. For the same compound, the “Plant response rating, Ryegrass, Italian” value (ryegrass, Italian [20]; Postemergence, 125 g ai/ha) was 60, the “Plant response rating, Soybean” value (soybean [21]; 500 g ai/ha, postemergence) was 100 and the “Plant response rating, Soybean” value (soybean [21]; Postemergence, 125 g ai/ha) was 100. The “Plant response rating, Wheat” value (wheat [22]; 500 g ai/ha, postemergence) was 30, the “Plant response rating, Wheat” value (wheat [22]; Postemergence, 125 g ai/ha) was 20 and the “Plant response rating, Galium” value (galium; 500 g ai/ha, postemergence) was 100. The “Plant response rating, Galium” value (galium; Postemergence, 125 g ai/ha) was 100, the “Plant response rating, Horseweed” value (horseweed; 500 g ai/ha, postemergence) was 30 and the “Plant response rating, Horseweed” value (horseweed; Postemergence, 125 g ai/ha) was 0. For the same compound, the “Plant response rating, Barnyardgrass (Flood)” value (barnyardgrass [23]) was 40, the “Plant response rating, Ducksalad (Flood)” value (ducksalad) was 65 and the “Plant response rating, Rice (Flood)” value (rice) was 10. For the same compound, the “Plant response rating, Sedge, Umbrella (Flood)” value (sedge, umbrella) was 60.
